Experiments:
[1] = biological target: Rho kinase 1 (ROCK-I) (Homo sapiens, UniProt Q13464); test: In vitro Rho kinase inhibitory activity assay (ADP-Glo), Rho kinase 1; type: biochemical; details: 10 μM ATP, 25° C., expressed as range of activity
Method: (§1) The effectiveness of compounds of the present invention to inhibit Rho kinase activity can be determined in a 10 μl assay containing 40 mM Tris pH7.5, 20 mM MgCl2 0.1 mg/ml BSA, 50 μM DTT and 2.5 μM peptide substrate (Myelin Basic Protein) using an ADP-Glo kit (Promega). Compounds were dissolved in DMSO such that the final concentration of DMSO was 1% in the assay. All reactions/incubations are performed at 25° C. Compound (2 ul) and either Rho kinase 1 or 2 (4 μl) were mixed and incubated for 30 mins. Reactions were initiated by addition of ATP (4 μl) such that the final concentration of ATP in the assay was 10 μM. After a 1 hour incubation 10 μl of ADP-Glo Reagent was added and after a further 45 minute incubation 20 ul of Kinase Detection Buffer was added and the mixture incubated for a further 30 minutes. The luminescent signal was measured on a luminometer. […] Compounds were tested in dose-response format and the inhibition of kinase activity was calculated at each concentration of compound. To determine the IC50 (concentration of compound required to inhibit 50% of the enzyme activity) data were fit to a plot of % inhibition vs Log10 compound concentration using a sigmoidal fit with a variable slope and fixing the maximum to 100% and the minimum to 0%. To determine the Ki values the Cheng-Prusoff equation was utilized (Ki=IC50/(1+[S]/Km).

[2] = biological target: Rho kinase 2 (ROCK-II) (Homo sapiens, UniProt O75116); test: In vitro Rho kinase inhibitory activity assay (ADP-Glo), Rho kinase 2; type: biochemical; details: 10 μM ATP, 25° C., expressed as range of activity
Rho kinase 2 (ROCK-II), sequence (O75116 whole entry): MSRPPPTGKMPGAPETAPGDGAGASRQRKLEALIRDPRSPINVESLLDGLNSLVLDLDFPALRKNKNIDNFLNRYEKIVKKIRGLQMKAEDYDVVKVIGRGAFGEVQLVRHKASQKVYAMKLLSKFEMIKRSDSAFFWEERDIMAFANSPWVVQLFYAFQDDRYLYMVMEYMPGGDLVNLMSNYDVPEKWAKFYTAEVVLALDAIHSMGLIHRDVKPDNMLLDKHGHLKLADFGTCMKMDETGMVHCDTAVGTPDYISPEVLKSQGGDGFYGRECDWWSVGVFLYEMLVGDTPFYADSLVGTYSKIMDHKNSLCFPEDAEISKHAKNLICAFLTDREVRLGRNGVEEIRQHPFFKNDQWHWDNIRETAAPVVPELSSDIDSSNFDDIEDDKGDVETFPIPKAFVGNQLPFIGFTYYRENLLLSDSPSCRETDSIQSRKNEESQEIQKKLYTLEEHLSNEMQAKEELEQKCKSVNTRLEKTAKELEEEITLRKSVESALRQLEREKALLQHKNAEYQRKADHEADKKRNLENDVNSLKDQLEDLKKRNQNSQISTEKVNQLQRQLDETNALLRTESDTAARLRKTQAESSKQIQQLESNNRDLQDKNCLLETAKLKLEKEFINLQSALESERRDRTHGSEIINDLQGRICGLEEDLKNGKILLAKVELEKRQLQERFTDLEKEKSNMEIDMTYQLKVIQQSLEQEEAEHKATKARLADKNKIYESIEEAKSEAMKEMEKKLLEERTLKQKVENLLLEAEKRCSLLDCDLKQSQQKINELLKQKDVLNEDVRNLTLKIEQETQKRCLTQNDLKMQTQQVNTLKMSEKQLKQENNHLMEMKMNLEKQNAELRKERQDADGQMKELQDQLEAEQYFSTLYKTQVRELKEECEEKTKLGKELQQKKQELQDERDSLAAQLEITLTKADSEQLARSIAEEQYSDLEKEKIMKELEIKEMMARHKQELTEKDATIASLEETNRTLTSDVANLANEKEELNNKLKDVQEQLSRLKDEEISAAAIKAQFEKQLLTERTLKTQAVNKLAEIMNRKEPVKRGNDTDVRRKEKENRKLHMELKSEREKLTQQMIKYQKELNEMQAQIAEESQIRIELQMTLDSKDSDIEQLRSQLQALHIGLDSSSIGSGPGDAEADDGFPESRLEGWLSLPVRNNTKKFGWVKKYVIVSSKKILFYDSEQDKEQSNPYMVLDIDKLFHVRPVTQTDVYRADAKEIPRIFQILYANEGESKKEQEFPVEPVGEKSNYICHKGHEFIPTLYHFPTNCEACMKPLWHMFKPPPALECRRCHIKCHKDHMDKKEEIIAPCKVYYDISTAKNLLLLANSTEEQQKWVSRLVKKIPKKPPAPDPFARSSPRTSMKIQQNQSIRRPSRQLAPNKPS
Method: as §1

Rho kinase 1 (ROCK-I), sequence (Q13464 whole entry): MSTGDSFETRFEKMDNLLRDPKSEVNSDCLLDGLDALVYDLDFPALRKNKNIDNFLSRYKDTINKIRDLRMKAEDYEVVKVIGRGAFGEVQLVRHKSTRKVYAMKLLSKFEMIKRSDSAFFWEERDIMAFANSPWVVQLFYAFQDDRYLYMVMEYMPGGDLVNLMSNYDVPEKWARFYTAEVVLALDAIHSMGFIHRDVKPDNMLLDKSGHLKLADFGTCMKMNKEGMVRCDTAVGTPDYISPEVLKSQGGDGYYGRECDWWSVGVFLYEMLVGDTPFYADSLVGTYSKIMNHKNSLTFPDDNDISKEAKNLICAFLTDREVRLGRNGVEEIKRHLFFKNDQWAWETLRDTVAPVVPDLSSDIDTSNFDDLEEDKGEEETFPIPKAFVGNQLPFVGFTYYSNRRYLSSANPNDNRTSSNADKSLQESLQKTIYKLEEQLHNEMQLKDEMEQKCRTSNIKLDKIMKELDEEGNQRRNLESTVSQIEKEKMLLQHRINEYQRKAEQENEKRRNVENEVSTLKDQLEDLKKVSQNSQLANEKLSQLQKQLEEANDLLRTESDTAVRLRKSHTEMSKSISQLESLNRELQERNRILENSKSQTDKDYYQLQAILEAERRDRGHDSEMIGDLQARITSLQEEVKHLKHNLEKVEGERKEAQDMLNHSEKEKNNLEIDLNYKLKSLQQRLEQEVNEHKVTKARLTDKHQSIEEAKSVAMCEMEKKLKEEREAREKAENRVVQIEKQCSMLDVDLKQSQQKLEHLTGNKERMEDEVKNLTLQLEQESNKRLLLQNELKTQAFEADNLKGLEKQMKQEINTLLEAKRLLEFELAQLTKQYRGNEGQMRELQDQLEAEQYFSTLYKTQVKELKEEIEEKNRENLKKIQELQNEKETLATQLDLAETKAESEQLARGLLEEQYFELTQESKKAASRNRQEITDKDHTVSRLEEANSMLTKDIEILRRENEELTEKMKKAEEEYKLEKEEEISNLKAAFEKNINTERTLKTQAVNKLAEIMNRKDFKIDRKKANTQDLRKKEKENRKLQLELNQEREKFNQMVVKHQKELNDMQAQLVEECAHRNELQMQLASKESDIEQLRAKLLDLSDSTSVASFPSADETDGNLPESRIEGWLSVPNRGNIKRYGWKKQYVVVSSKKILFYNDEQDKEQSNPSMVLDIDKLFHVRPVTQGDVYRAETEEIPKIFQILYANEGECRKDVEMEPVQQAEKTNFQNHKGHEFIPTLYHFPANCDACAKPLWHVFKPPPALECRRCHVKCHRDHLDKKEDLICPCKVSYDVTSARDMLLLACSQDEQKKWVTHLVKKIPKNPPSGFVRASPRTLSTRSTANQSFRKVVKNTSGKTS

| Compound | Ki [1] [nM] | Ki [2] [nM] |
| --- | --- | --- |
| Cc1c[nH]c2ncnc(Oc3ccc(C[C@H](N)C(=O)NC4CCN(C)CC4)cc3F)c12 [Example 117, (S)-2-amino-3-(3-fluoro-4-((5-methyl-7H-pyrrolo[2,3-d]pyrimidin-4-yl)oxy)phenyl)-N-(1-methylpiperidin-4-yl)propanamide] | 3 to 30 | 3 to 30 |
| CN1CCC(NC(=O)[C@@H](N)Cc2ccc(Oc3ccnc4[nH]cc(-c5cncs5)c34)c(F)c2)CC1 [Example 205, (S)-2-amino-3-(3-fluoro-4-((3-(thiazol-5-yl)-1H-pyrrolo[2,3-b]pyridin-4-yl)oxy)phenyl)-N-(1-methylpiperidin-4-yl)propanamide] | < 3 | < 3 |
| CN(C)CCNC(=O)C(Cc1ccc(Oc2ccnc3[nH]ccc23)cc1)NC(=O)C1CCCCC1 (stereo not shown) [Example 181, N-(3-(4-((1H-pyrrolo[2,3-b]pyridin-4-yl)oxy)phenyl)-1-((2-(dimethylamino)ethyl)amino)-1-oxopropan-2-yl)cyclohexanecarboxamide] | > 30 | > 30 |
| CN(C)CCNC(=O)[C@@H](N)Cc1ccc(Oc2ccnc3[nH]ccc23)cc1 [Example 95, (S)-3-(4-((1H-pyrrolo[2,3-b]pyridin-4-yl)oxy)phenyl)-2-amino-N-(2-(dimethylamino)ethyl)propanamide] | > 30 | > 30 |
| N#Cc1c[nH]c2nccc(Oc3ccc(C[C@H](N)C(=O)NC4CCCCC4)cc3F)c12 [Example 221, (S)-2-amino-3-(4-((3-cyano-1H-pyrrolo[2,3-b]pyridin-4-yl)oxy)-3-fluorophenyl)-N-cyclohexylpropanamide] | < 3 | < 3 |
| Cc1c[nH]c2nccc(Oc3ccc(C[C@H](N)C(=O)NCCc4ccncc4)cc3)c12 [Example 89, (S)-2-amino-3-(4-((3-methyl-1H-pyrrolo[2,3-b]pyridin-4-yl)oxy)phenyl)-N-(2-(pyridin-4-yl)ethyl)propanamide] | < 3 | < 3 |
| CN(Cc1ccccc1)C(=O)[C@H](N)Cc1ccc(Oc2ccnc3[nH]ccc23)cc1 [Example 144, (R)-3-(4-((1H-pyrrolo[2,3-b]pyridin-4-yl)oxy)phenyl)-2-amino-N-benzyl-N-methylpropanamide] | > 30 | > 30 |
| Cc1c[nH]c2nccc(Oc3ccc(C[C@H](N)C(=O)N4C[C@@H]5C[C@H]4CN5Cc4ccccc4)cc3F)c12 [Example 24, (S)-2-amino-1-((1S,4S)-5-benzyl-2,5-diazabicyclo[2.2.1]heptan-2-yl)-3-(3-fluoro-4-((3-methyl-1H-pyrrolo[2,3-b]pyridin-4-yl)oxy)phenyl)propan-1-one] | < 3 | < 3 |
| Cc1c[nH]c2nccc(Oc3ccc(C[C@@H](N)C(=O)NCC4CCCCC4)cc3)c12 [Example 140, (R)-2-amino-N-(cyclohexylmethyl)-3-(4-((3-methyl-1H-pyrrolo[2,3-b]pyridin-4-yl)oxy)phenyl)propanamide] | 3 to 30 | 3 to 30 |
| N[C@@H](Cc1ccc(Oc2ccnc3[nH]ccc23)cn1)C(=O)N1CCN(Cc2ccccc2)CC1 [Example 228, (S)-3-(5-((1H-pyrrolo[2,3-b]pyridin-4-yl)oxy)pyridin-2-yl)-2-amino-1-(4-benzylpiperazin-1-yl)propan-1-one] | > 30 | 3 to 30 |
| Cc1c[nH]c2ncnc(Oc3ccc(C[C@H](N)C(=O)N4CCC(O)(Cc5ccccc5)CC4)cc3F)c12 [Example 123, (S)-2-amino-1-(4-benzyl-4-hydroxypiperidin-1-yl)-3-(3-fluoro-4-((5-methyl-7H-pyrrolo[2,3-d]pyrimidin-4-yl)oxy)phenyl)propan-1-one] | < 3 | < 3 |
| Cc1c[nH]c2nccc(Oc3ccc(CC(N)C(=O)Nc4cccnc4)cc3F)c12 (stereo not shown) [Example 70, 2-amino-3-(3-fluoro-4-((3-methyl-1H-pyrrolo[2,3-b]pyridin-4-yl)oxy)phenyl)-N-(pyridin-3-yl)propanamide] | < 3 | < 3 |

Continued, values first:

| Ki [1] [nM] | Ki [2] [nM] | Compound |
| --- | --- | --- |
| < 3 | < 3 | Cc1c[nH]c2nccc(Oc3ccc(C[C@H](N)C(=O)N4CC5(CNC5)C4)cc3F)c12 [Example 29, (S)-2-amino-3-(3-fluoro-4-((3-methyl-1H-pyrrolo[2,3-b]pyridin-4-yl)oxy)phenyl)-1-(2,6-diazaspiro[3.3]heptan-2-yl)propan-1-one] |
| 3 to 30 | 3 to 30 | COCc1c[nH]c2nccc(Oc3ccc(C[C@H](N)C(=O)N4CCN(C)CC4)cc3F)c12 [Example 215, (S)-2-amino-3-(3-fluoro-4-((3-(methoxymethyl)-1H-pyrrolo[2,3-b]pyridin-4-yl)oxy)phenyl)-1-(4-methylpiperazin-1-yl)propan-1-one] |
| < 3 | < 3 | Cc1c[nH]c2nccc(Oc3ccc(C[C@H](N)C(=O)N4CCN(Cc5cnc6ccccc6n5)CC4)cc3F)c12 [Example 159, (S)-2-amino-3-(3-fluoro-4-((3-methyl-1H-pyrrolo[2,3-b]pyridin-4-yl)oxy)phenyl)-1-(4-(quinoxalin-2-ylmethyl)piperazin-1-yl)propan-1-one] |
| < 3 | < 3 | Cc1c[nH]c2nccc(Oc3ccc(CC(N)C(=O)N4CCN(CCc5ccccc5)CC4)cc3F)c12 (stereo not shown) [Example 53, 2-amino-3-(3-fluoro-4-((3-methyl-1H-pyrrolo[2,3-b]pyridin-4-yl)oxy)phenyl)-1-(4-phenethylpiperazin-1-yl)propan-1-one] |
| < 3 | < 3 | Cc1ccc(CN2CCN(C(=O)C(N)Cc3ccc(Oc4ccnc5[nH]cc(C)c45)c(F)c3)CC2)cc1 (stereo not shown) [Example 72, 2-amino-3-(3-fluoro-4-((3-methyl-1H-pyrrolo[2,3-b]pyridin-4-yl)oxy)phenyl)-1-(4-(4-methylbenzyl)piperazin-1-yl)propan-1-one] |
| 3 to 30 | 3 to 30 | Cc1c[nH]c2nccc(Oc3ccc(C[C@H](N)C(=O)N4CCN(C(=O)C5CCN(C)CC5)CC4)cc3F)c12 [Example 171, (S)-2-amino-3-(3-fluoro-4-((3-methyl-1H-pyrrolo[2,3-b]pyridin-4-yl)oxy)phenyl)-1-(4-(1-methylpiperidine-4-carbonyl)piperazin-1-yl)propan-1-one] |
| < 3 | < 3 | Cc1c[nH]c2nccc(Oc3ccc(CC(N)C(=O)NCCCN4CCOCC4)cc3F)c12 (stereo not shown) [Example 79, 2-amino-3-(3-fluoro-4-((3-methyl-1H-pyrrolo[2,3-b]pyridin-4-yl)oxy)phenyl)-N-(3-morpholinopropyl)propanamide] |
| < 3 | < 3 | Cc1noc(C2CCN(C(=O)[C@@H](N)Cc3ccc(Oc4ccnc5[nH]cc(C)c45)c(F)c3)C2)n1 (stereo partly drawn) [Example 8, (2S)-2-amino-3-(3-fluoro-4-((3-methyl-1H-pyrrolo[2,3-b]pyridin-4-yl)oxy)phenyl)-1-(3-(3-methyl-1,2,4-oxadiazol-5-yl)pyrrolidin-1-yl)propan-1-one] |
| < 3 | < 3 | CN1C[C@@H]2C[C@H]1CN2C(=O)[C@@H](N)Cc1ccc(Oc2ccnc3[nH]cc(C#N)c23)c(F)c1 [Example 223, 4-(4-((S)-2-amino-3-((1S,4S)-5-methyl-2,5-diazabicyclo[2.2.1]heptan-2-yl)-3-oxopropyl)-2-fluorophenoxy)-1H-pyrrolo[2,3-b]pyridine-3-carbonitrile] |
| < 3 | < 3 | Cc1c[nH]c2nccc(Oc3ccc(CC(N)C(=O)N4CCN(C)CC4)cc3F)c12 (stereo not shown) [Example 59, 2-amino-3-(3-fluoro-4-((3-methyl-1H-pyrrolo[2,3-b]pyridin-4-yl)oxy)phenyl)-1-(4-methylpiperazin-1-yl)propan-1-one] |
| < 3 | < 3 | Cc1c[nH]c2nccc(Oc3ccc(C[C@H](N)C(=O)N4CCNCC4)cc3F)c12 [Example 152, (S)-2-amino-3-(3-fluoro-4-((3-methyl-1H-pyrrolo[2,3-b]pyridin-4-yl)oxy)phenyl)-1-(piperazin-1-yl)propan-1-one] |
| < 3 | < 3 | Cc1c[nH]c2nccc(Oc3ccc(C[C@H](N)C(=O)N4CCN(C(=O)c5cccc(CN(C)C)c5)CC4)cc3F)c12 [Example 173, (S)-2-amino-1-(4-(3-((dimethylamino)methyl)benzoyl)piperazin-1-yl)-3-(3-fluoro-4-((3-methyl-1H-pyrrolo[2,3-b]pyridin-4-yl)oxy)phenyl)propan-1-one] |
| < 3 | < 3 | Cc1c[nH]c2nccc(Oc3ccc(C[C@H](N)C(=O)N4CCN(C(=O)c5ccccc5)CC4)cc3F)c12 [Example 167, (S)-2-amino-1-(4-benzoylpiperazin-1-yl)-3-(3-fluoro-4-((3-methyl-1H-pyrrolo[2,3-b]pyridin-4-yl)oxy)phenyl)propan-1-one] |
| < 3 | < 3 | Cc1c[nH]c2nccc(Oc3ccc(C[C@H](N)C(=O)N4CCN(S(=O)(=O)c5ccccc5)CC4)cc3F)c12 [Example 22, (S)-2-amino-3-(3-fluoro-4-((3-methyl-1H-pyrrolo[2,3-b]pyridin-4-yl)oxy)phenyl)-1-(4-(phenylsulfonyl)piperazin-1-yl)propan-1-one] |
